Test results reported in patent US20150374784A1, “COMPOSITIONS AND METHODS FOR REDUCING GERM CELL DEATH” (Los Angeles Biomedical Research Institute at Harbor-UCLA …, priority 2014, published 2015).
Counter-ions that a name gives are not always drawn.

Key:
male germ cells [1] = format: in vivo, mouse; settings: for spontaneous germ cell apoptosis, peptide alone: single IP, 24 hours, no CP; for inhibition of (protection against) CP-induced germ cell apoptosis, early+late stages / effect on CP-induced germ cell apoptosis, early+late stages: stages I-IV and XI-XII; for inhibition of (protection against) CP-induced germ cell apoptosis, early+late stages: HN, HN-C8P 40 mg/kg BW; for effect of adding the analog on the preventive effect of HN against CP-induced germ cell apoptosis: each peptide 40 mg/kg BW; for effect on CP-induced germ cell apoptosis, early+late stages / effect on CP-induced germ cell apoptosis, middle stages: 40 mg/kg BW
Protocol: (§1) For the HN analog experiments, male mice were divided into seven groups (n=4-5 per group) and received one of the following treatments and sacrificed after 24 hours: 1) vehicle (control); 2) a single intra-peritoneal (IP) injection of HN peptide [HN, 40 mg/Kg body weight (BW)]; 3) a single IP injection of CP (CP, 200 mg/Kg BW); 4) IP injection of CP and HN (CP+HN); 5) a single IP injection of each HN analog (HNG 5 mg/Kg BW, HNG-F6A 5 mg/Kg BW, HN-S7A 40 mg/Kg BW, HN-C8P 40 mg/Kg BW, or HN-L12A 40 mg/Kg BW); 6) IP injection of CP and each HN analog (CP+HNG, HNG-F6A, HN-S7A, HN-C8P, or HN-L12A); and 7) IP injection of CP+HN+HN analog (HN-S7A, HN-C8P, or HN-L12A; to assess whether the analogs has enhancing or inhibitory effect on HN).
(§2) To facilitate testicular fixation by using a whole-body perfusion technique, all animals were injected with heparin (130 IU/100 g BW, IP) 15 min before a lethal injection of sodium pentobarbital (200 mg/kg BW, IP) (Lue Y H, et al., 1999). One testis was removed and weighed after perfusion with saline. Portions of testicular parenchyma were snap frozen in liquid nitrogen, and stored at −80 C for Western blotting. The other testis was fixed by vascular perfusion with Bouin's solution, and processed with routine paraffin embedding for in situ detection of apoptosis.
Detection of apoptotic cells was performed in Bouin's′-fixed, paraffin-embedded testicular sections by the terminal deoxynucleotidyl transferase (TdT)-mediated deoxy-UTP nick end labeling (TUNEL) technique (Sinha Hikim A P, et al., 1997) using an ApopTag-peroxidase kit (Chemicon International, Inc., Temecula, Calif.). Enumeration of the Sertoli cell nuclei with distinct nucleoli and apoptotic germ cell population was quantified at stages I-IV (early stages), stages VII-VIII (middle stages) and stages XI-XII (late stages) of the seminiferous epithelial cycle using an Olympus BH-2 microscope (New Hyde Park, N.Y.). Stages were identified according to the criteria proposed by Russell et al for paraffin sections (Russell L, 1977). The rate of germ cell apoptosis (apoptotic index, AI) was expressed as the number of apoptotic germ cells per Sertoli cells (Sinha Hikim A P, et al., 1997).

cells = settings: Table 1, description of analogs; cited from earlier work
[2] = test system: IGFBP-3, membrane receptor, BAX, HN; settings: Table 1, description of analogs; cited from earlier work
[3] = test system: germ cells in seminiferous tubules; assay: Germ cell apoptosis in mouse seminiferous tubule cultures ex vivo (TUNEL); format: cell-based; settings: 12 hours; for germ cell apoptosis (number of apoptotic germ cells) compared to control: DOX 10 μM (high dose), hydrochloride
Protocol: A total of 15 young adult (12-13 week-old) mice were used for these ex vivo studies. The animals were sacrificed with a 5% pentobarbital (200 mg/Kg) IP injection. Testes were dissected and after removing the tunica albuginea, seminiferous tubules isolated from testes were cut into small segments under a dissecting microscope and light and dark segments were separated by dissection. Ten to twelve segments were placed (2 mm in length) in each well on a six well plate with 2 ml serum free Ham F-10 culture medium (GIBCO, Life Technologies, Thermo Fisher Scientific Corp., Carlsbad, Calif.) with the following treatments: control (Con, n=10), heat (43° C., 15 minutes, used as a positive control, n=10); HN 10 μg/mL (n=9); DOX 10 mcM (Dox10, n=10); and DOX 10 mcM+Humanin 10 μg/mL (Dox10+HN, n=10). For these experiments, n represents the total number of times the treatment was repeated using different animals. After 12 hours of incubation at 34° C. the seminiferous tubules from each treatment group were used to make “squashed” seminiferous tubule samples on a slide for TUNEL (TdT-mediated dUTP nick-end labeling) assay to detect germ cell apoptosis (Erkkila, et al., 1997; Toppari & Parvinen, 1985). To quantify the rate of germ cell apoptosis under a light microscope at 400× magnification, a square grid fitted within the eyepiece provided a reference area of 62,500 μm^2. The TUNEL positive apoptotic germ cells within the frame of grid were counted in 4 segments of seminiferous tubules in each group. The incidence of germ cell apoptosis was expressed as the number of apoptotic germ cells per mm^2.
A total of 15 mice were used for ex vivo studies. The animals were sacrificed and seminiferous tubules isolated from testes were cut into small segments under a dissecting microscope to identify light (early stages I-IV and late stages XI-XII) of the seminiferous epithelium) and dark (middle stages VII-VIII) segments. Ten to twelve light segments (2 mm in length) were placed per well on a six well plate with 2 ml serum free medium of F-10 Ham nutrient mixture (Gibco, Life Technologies, Grand Island, N.Y.) following these treatments: control (Con, n=15 where n is the number of times the treatment was repeated with segments obtained from different donor animals), heat (43° C., 15 min.; used as a positive control, n=10), HN 10 μg/mL (HN, n=9), doxorubicin 1 μM (Dox1, n=7), doxorubicin 1 μM+HN 10 μg/mL (Dox1+HN, n=7), doxorubicin 10 μM (Dox10, n=10), and doxorubicin 10 μM+HN 10 μg/mL (Dox10+HN, n=10). After 12 hours of incubation at 34° C. with 5% CO2, the seminiferous tubules from the seven treatment groups were used to make “squashed” seminiferous tubule preparations on a slide for TUNEL assay to detect germ cell apoptosis (Erkkila K, et al., 1997). To quantify the rate of germ cell apoptosis, the squashed segments of seminiferous tubules were examined with an American Optical Microscope (Scientific Instruments, Buffalo, N.Y.) with a 40×objective and a 10×eyepiece lens. A square grid fitted within the eyepiece provided a reference area of 62,500 μm^2. The TUNEL positive apoptotic germ cells within the frame of grid were counted in 4 segments of seminiferous tubules in each group. The incidence of germ cell apoptosis was expressed as the number of apoptotic germ cells per mm^2.

B16 melanoma cells = format: cell-based; settings: B16 cells in culture
Source text: Furthermore, the autophagy induction of humanin may be related to its apparent effects of enhancing longevity observed in other systems.

STAT3 = STAT3 phosphorylation in testis by western blot; format: in vivo, mouse; settings: testis homogenates; for STAT3 phosphorylation (phosphorylated STAT3/STAT3) compared with control: treatment alone; for CP suppressed STAT3 (Ser727) phosphorylation: with CP 200 mg/Kg
Protocol: as §1, §2
Western blotting was performed as described previously (Jia Y, et al., 2009). In brief, proteins were denatured and separated by sodium dodecyl sulfate-polyacrylamide gel electrophoresis (SDS-PAGE) system (Invitrogen, Carlsbad, Calif.). After transferring, the Immuno-blot PVDF Membrane (Bio-Rad, Hercules, Calif.) was blocked for 1 h and then probed using anti-STAT3 or anti-pSer727 STAT3 (Cell signaling Technology, Inc., Beverly, Mass.) overnight at 4 C with constant shaking. After washing, membrane was then incubated with an anti-mouse (for STAT3 antibody, Santa Cruz Biotechnology, Santa Cruz, Calif.) or anti-rabbit (for pSer727 STAT3 antibody, Amersham Biosciences, Piscataway, N.J.) IgG-HRP secondary antibody. All antibodies were diluted in blocking buffer. For immunodetection, membrane was incubated with enhanced chemiluminescence solutions per the manufacturer's specifications (Amersham Biosciences, Piscataway, N.J.), and exposed to Hyperfilm ECL (Denville Scientific Inc., Metuchen, N.J.).

Leydig cells = assay: Leydig cell depletion and testosterone levels in rats; format: in vivo, rat
male germ cells [4] = settings: EDS 80 mg/kg IP 3 days before; CP 70 mg/kg BW
[5] = rats, EDS 80 mg/kg, CP 70 mg/kg BW, HN 40 mg/kg BW, with or without EDS pre-treatment

| Compound | spontaneous germ cell apoptosis, peptide alone (male germ cells [1]) | effect of adding the analog on the preventive effect of HN against CP-induced germ cell apoptosis (male germ cells [1]) | effect on CP-induced germ cell apoptosis, early+late stages (male germ cells [1]) | effect on CP-induced germ cell apoptosis, middle stages (male germ cells [1]; stages VII-VIII) | Cytoprotective Action (cells) | Characteristics [2] | other results |
| --- | --- | --- | --- | --- | --- | --- | --- |
| MAPRGASCLLLLTGEIDLPVKRRA [HNG-F6A] | did not change spontaneous germ cell apoptosis |  |  |  |  |  | inhibition of (protection against) CP-induced germ cell apoptosis, early+late stages (male germ cells [1]; HNG, HNG-F6A 5 mg/kg BW): ~38%; prevention of CP-induced germ cell apoptosis, middle stages (male germ cells [1]; stages VII-VIII, HNG, HNG-F6A 5 mg/kg BW): ~42% |
| HN-L12A: HN with a substitution of alanine for 12th leucine, HN antagonist dimerizes with HN preventing HN binding to receptor (MAPRGFSCLLLATSEIDLPVKRRA) | did not change the spontaneous germ cell apoptosis | completely blocked the preventive effect of HN | unable to rescue | unable to rescue | HN antagonist, forms inactive dimer |  |  |
| MAPRGASCLLLLTSEIDLPVKRRA [HN-F6A] |  |  |  |  | Similar/more effective than HN. | Loss of IGFBP-3 binding |  |
| COc1cccc2c1C(=O)c1c(O)c3c(c(O)c1C2=O)C[C@@](O)(C(=O)CO)C[C@@H]3O[C@H]1C[C@H](N)[C@H](O)[C@H](C)O1 [DOX, doxorubicin hydrochloride, reference compound] |  |  |  |  |  |  | germ cell apoptosis (number of apoptotic germ cells) compared to control [3]: significantly higher number of apoptotic germ cells; germ cell apoptosis (number of apoptotic germ cells) compared to control ([3]; listed as doxorubicin): significantly increased apoptosis; germ cell apoptosis compared with control ([3]; doxorubicin 1 μM (low dose)): increased apoptosis but did not reach statistical difference |
| Cn1cnc(N)c2ncnc1-2 [3-MA] |  |  |  |  |  |  | additive effect of humanin in doxorubicin treated B16 cells, with autophagy inhibitor (B16 melanoma cells): diminished the additive effect of humanin |
| CCN(CC)CCCC(C)Nc1ccnc2cc(Cl)ccc12 (stereo not drawn) [chloroquine] |  |  |  |  |  |  | additive effect of humanin in doxorubicin treated B16 cells, with autophagy inhibitor (B16 melanoma cells): diminished the additive effect of humanin |
| MAPRGFACLLLLTSEIDLPVKRRA [HN-S7A] | did not change the spontaneous germ cell apoptosis | did not change the effect of HN on CP-induced apoptosis | inhibited | had better protective effect than HN | Not effective, prevents HN self- | Loss of membrane receptor | STAT3 phosphorylation (phosphorylated STAT3/STAT3) compared with control (STAT3): did not change STAT3 phosphorylation; CP suppressed STAT3 (Ser727) phosphorylation (STAT3): restored CP-induced Ser 727-phosphorylation of STAT3 |
| CS(=O)(=O)OCCOS(C)(=O)=O [EDS, ethane dimethanesulfonate] |  |  |  |  |  |  | Leydig cells in the interstitial spaces (testis histology) (Leydig cells; EDS for three days): depletion of Leydig cells; intratesticular testosterone levels (Leydig cells; [5]): decreased to very low levels; serum testosterone levels (Leydig cells; [5]): decreased to very low levels; germ cell apoptosis at early (I-VI) and late (IX-XIV) stages, EDS pre-treated rats, compared to control (male germ cells [4]): did not significantly increase germ cell apoptosis; germ cell apoptosis in middle (VII-VIII) stages, EDS pre-treated rats (male germ cells [4]): had significant acute cytotoxic effects on germ cells |
| MAPRGFSALLLLTSEIDLPVKRRA [HN-C8A, HN mutant, Cys8 to Ala] |  |  |  |  | Not effective, prevents HN self- | Loss of membrane receptor |  |
| MAPRGFSPLLLLTSEIDLPVKRRA [HN-C8P] | did not change the spontaneous germ cell apoptosis | did not change the preventive effect of HN | showed less protection against CP-induced apoptosis | no significant effect in middle (VII-VIII) stages | Not effective, blocks intracellular HN | Loss of BAX binding | inhibition of (protection against) CP-induced germ cell apoptosis, early+late stages (male germ cells [1]; HNG, HNG-F6A 5 mg/kg BW): ~30%; STAT3 phosphorylation (phosphorylated STAT3/STAT3) compared with control (STAT3): did not change STAT3 phosphorylation; CP suppressed STAT3 (Ser727) phosphorylation (STAT3): restored CP-induced Ser 727-phosphorylation of STAT3 |
